These results are taken from ChEMBL document CHEMBL1909046, “DrugMatrix in vitro pharmacology data”.

pIC50, pKi: −log10 of the molar value.

For test [1], the target named is Sodium-dependent noradrenaline transporter (Homo sapiens, UniProt P23975). Kind of test: DRUGMATRIX: Norepinephrine Transporter radioligand binding (ligand: [125I] RTI-55). The test is classed as cell membranes, MDCK, Membrane. The settings on record: Not Active = under 50% inhibition at 10 µM; for IC50: mdck.
In test [2] the target is 5-hydroxytryptamine receptor 2B (Homo sapiens, UniProt P41595). The test is classed as cell membranes, CHO-K1, Membrane. The settings on record: for IC50: cho-k1. For all read-outs here: in other assays of this panel Not Active means under 50% inhibition at 10 µM.
5-hydroxytryptamine receptor 2B, sequence (P41595 whole entry): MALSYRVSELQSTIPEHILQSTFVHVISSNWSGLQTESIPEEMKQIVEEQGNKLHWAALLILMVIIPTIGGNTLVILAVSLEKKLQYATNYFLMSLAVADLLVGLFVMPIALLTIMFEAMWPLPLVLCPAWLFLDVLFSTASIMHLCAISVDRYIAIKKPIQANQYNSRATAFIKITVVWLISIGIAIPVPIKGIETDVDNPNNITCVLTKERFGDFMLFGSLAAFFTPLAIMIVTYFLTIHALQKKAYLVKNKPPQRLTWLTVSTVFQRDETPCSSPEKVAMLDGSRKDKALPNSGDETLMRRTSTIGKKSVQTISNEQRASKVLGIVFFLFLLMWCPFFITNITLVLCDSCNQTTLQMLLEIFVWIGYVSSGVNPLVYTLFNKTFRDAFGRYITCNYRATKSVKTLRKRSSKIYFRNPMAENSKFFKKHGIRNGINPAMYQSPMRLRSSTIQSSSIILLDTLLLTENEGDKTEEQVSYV
The target of test [3] is T1, Cysteinyl leukotriene receptor 1 (Homo sapiens, UniProt Q9Y271). Note: in other assays of this panel Not Active means under 50% inhibition at 10 µM.
T1 sequence (Q9Y271 whole entry): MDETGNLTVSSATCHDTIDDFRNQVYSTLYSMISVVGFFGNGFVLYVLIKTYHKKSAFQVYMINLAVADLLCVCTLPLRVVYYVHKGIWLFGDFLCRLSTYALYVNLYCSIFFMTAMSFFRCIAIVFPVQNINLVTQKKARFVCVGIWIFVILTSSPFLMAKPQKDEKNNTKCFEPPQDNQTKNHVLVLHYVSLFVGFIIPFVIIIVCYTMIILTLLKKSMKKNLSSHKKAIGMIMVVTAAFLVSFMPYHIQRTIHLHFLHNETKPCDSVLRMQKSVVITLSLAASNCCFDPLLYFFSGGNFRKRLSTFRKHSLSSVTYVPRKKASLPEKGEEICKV
The test is classed as cell membranes, Membrane. The settings on record: cho-k1.

Test [4] deals with T2, Amine oxidase [flavin-containing] A (Homo sapiens, UniProt P21397).
T2 sequence (P21397 whole entry): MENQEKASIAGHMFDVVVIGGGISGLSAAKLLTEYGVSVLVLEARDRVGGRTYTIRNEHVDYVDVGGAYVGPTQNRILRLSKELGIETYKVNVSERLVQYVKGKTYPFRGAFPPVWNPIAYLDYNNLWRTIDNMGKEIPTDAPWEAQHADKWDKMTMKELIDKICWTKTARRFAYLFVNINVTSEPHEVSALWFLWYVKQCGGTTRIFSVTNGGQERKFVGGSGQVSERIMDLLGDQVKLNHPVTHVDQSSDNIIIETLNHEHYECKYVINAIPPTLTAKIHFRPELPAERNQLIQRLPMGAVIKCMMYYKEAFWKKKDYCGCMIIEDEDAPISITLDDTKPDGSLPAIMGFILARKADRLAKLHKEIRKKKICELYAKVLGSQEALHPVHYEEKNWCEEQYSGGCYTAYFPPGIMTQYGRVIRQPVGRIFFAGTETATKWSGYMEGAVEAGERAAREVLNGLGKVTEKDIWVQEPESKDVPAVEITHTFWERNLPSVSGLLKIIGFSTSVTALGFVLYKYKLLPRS
In words: DRUGMATRIX: Monoamine Oxidase MAO-A enzyme inhibition (substrate: Kynuramine). The arrangement: species or system BTI-TN-5B1-4. The settings on record: bti-tn-5b1-4; Not Active = under 50% inhibition at 10 µM.

Test [5] addresses Protein phosphatase 3 catalytic subunit alpha (Homo sapiens, UniProt Q08209). Further details: species or system Escherichia coli.
A short description of test [6]: DRUGMATRIX: Purinergic P2X radioligand binding (ligand: [3H] alpha, beta-Methylene-ATP). The test is classed as cell membranes, Oryctolagus cuniculus, New Zealand albino, Urinary bladder, Membrane. The settings on record: Not Active = under 50% inhibition at 10 µM.
A further test addresses Estrogen receptor beta (Homo sapiens, UniProt Q92731). Particulars: sf9.

Sodium-dependent noradrenaline transporter, sequence (P23975 whole entry): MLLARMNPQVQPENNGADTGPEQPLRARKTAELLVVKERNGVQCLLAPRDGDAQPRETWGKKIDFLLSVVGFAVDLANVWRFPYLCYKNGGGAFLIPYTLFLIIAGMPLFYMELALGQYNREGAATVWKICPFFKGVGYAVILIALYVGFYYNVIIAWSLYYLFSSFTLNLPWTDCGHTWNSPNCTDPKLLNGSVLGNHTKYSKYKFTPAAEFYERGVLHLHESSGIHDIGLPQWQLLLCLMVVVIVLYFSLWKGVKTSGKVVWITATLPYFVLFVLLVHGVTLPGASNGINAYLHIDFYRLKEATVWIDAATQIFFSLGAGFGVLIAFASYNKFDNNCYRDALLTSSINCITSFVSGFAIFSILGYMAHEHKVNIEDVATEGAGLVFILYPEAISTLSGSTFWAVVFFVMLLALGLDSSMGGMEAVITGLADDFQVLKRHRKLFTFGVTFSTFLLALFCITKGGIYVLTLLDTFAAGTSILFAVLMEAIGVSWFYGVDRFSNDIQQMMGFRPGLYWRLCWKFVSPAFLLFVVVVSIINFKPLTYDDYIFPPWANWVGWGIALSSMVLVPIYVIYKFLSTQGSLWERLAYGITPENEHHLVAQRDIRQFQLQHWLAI
Estrogen receptor beta, sequence (Q92731 whole entry): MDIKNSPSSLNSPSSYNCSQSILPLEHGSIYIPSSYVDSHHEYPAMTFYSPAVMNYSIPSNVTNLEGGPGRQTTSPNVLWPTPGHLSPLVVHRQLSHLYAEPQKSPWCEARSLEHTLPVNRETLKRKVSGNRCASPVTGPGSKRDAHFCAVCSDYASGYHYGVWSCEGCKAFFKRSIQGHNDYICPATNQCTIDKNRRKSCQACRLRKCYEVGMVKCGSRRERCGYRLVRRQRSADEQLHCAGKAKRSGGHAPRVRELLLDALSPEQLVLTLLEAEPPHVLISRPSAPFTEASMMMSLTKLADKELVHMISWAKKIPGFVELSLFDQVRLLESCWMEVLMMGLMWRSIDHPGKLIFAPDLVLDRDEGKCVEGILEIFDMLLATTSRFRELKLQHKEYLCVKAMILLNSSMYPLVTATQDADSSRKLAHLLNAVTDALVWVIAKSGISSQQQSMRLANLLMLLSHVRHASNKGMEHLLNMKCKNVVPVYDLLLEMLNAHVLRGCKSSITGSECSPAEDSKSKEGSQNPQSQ

Regarding `CC[C@H]1OC(=O)[C@H](C)[C@@H](O[C@H]2C[C@@](C)(OC)[C@@H](O)[C@H](C)O2)[C@H](C)[C@@H](O[C@@H]2O[C@H](C)C[C@H](N(C)C)[C@H]2O)[C@](C)(O)C[C@@H](C)CN(C)[C@H](C)[C@@H](O)[C@]1(C)O` [AZITHROMYCIN], the IC50 result in test [1], in test [2], in test [3], in test [4], in test [5] and in test [6] was “Not Active” throughout. In addition, the IC50 entry at Estrogen receptor beta is “Not Active”. Also, the Ki entry in test [6] is listed as “Not Active”.

With `CC(C)(C)c1ccc(S(=O)(=O)/C=C/C#N)cc1` [BAY-11-7085], the IC50 result in test [1], in test [2], in test [3], in test [4], in test [5] and in test [6] was “Not Active” throughout. In addition, the IC50 result against Estrogen receptor beta is listed as “Not Active”. Further, the Ki entry in test [6] was “Not Active”.

In the case of `CCc1oc2ccccc2c1C(=O)c1cc(Br)c(O)c(Br)c1` [BENZBROMARONE], the IC50 entry (in test [1]; in test [3]; in test [4]; in test [5]; in test [6]; at Estrogen receptor beta) was “Not Active” throughout. For the same molecule, in test [2] (read-out: IC50), the pIC50 is 5.74. For the same molecule, the pKi in test [2] (read-out: Ki) was 5.94. For the same molecule, in test [6], the Ki entry was “Not Active”.

For the molecule `O=c1cc(-c2ccccc2)oc2ccc3ccccc3c12` [BETA-NAPHTHOFLAVONE], the IC50 entry in test [1], in test [2], in test [3], in test [4], in test [5] and in test [6] was “Not Active” throughout. The IC50 result against Estrogen receptor beta is “Not Active”. In addition, the Ki result in test [6] is on record as “Not Active”.

For the molecule `O=C(/C=C/c1ccc(O)c(O)c1)OCCc1ccccc1` [CAFFEIC ACID PHENETHYL ESTER], in test [1] (read-out: IC50), the pIC50 is 5.42. Moreover, the negative logarithm of the Ki (pKi) in test [1] (read-out: Ki) was 5.43. The IC50 result (in test [2]; in test [3]; in test [4]; in test [5]; in test [6]; on Estrogen receptor beta) was “Not Active” each time. The Ki result in test [6] is recorded as “Not Active”.

Regarding `COc1cc(CNC(=O)CCCC/C=C/C(C)C)ccc1O` [CAPSAICIN], the IC50 entry in test [1], in test [2], in test [3], in test [4], in test [5] and in test [6] was “Not Active” each time. Moreover, the IC50 entry at Estrogen receptor beta is recorded as “Not Active”. For the same molecule, in test [6], the Ki entry was “Not Active”.

Turning to `NC(=O)N1c2ccccc2C=Cc2ccccc21` [CARBAMAZEPINE], the IC50 entry in test [1], in test [2], in test [3], in test [4], in test [5] and in test [6] was “Not Active” in each case. Also, the IC50 result on Estrogen receptor beta is reported as “Not Active”. The Ki result in test [6] is recorded as “Not Active”.

With `CCOC(=O)n1ccn(C)c1=S` [CARBIMAZOLE], the IC50 result in test [1], in test [2], in test [3], in test [4], in test [5] and in test [6] was “Not Active” each time. Also, the IC50 entry against Estrogen receptor beta is on record as “Not Active”. The Ki entry in test [6] was “Not Active”.

Turning to `Oc1ccccc1O` [CATECHOL], the IC50 result in test [1], in test [2], in test [3], in test [4], in test [5] and in test [6] was “Not Active” in each case. For the same molecule, at Estrogen receptor beta, the IC50 result was “Not Active”. In test [6], the Ki result is reported as “Not Active”.

Take `CO[C@@]1(NC(=O)CSCC#N)C(=O)N2C(C(=O)O)=C(CSc3nnnn3C)CS[C@@H]21` [CEFMETAZOLE]: the IC50 result in test [1], in test [2], in test [3], in test [4], in test [5] and in test [6] was “Not Active” each time. Further, on Estrogen receptor beta, the IC50 entry is on record as “Not Active”. Besides, the Ki entry in test [6] is on record as “Not Active”.

As for `CN(C(=O)CCCOc1ccc2[nH]c(=O)ccc2c1)C1CCCCC1` [CILOSTAMIDE], the IC50 result in test [1], in test [2], in test [3], in test [4], in test [5] and in test [6] was “Not Active” in each case. Moreover, on Estrogen receptor beta, the IC50 result is reported as “Not Active”. Besides, the Ki result in test [6] is recorded as “Not Active”.

On to `CC(C)(Oc1ccc(C2CC2(Cl)Cl)cc1)C(=O)O` (stereo unspecified) [CIPROFIBRATE], for which the IC50 entry in test [1], in test [2], in test [3], in test [4], in test [5] and in test [6] was “Not Active” in each case. Moreover, the IC50 entry against Estrogen receptor beta is listed as “Not Active”. Besides, in test [6], the Ki result was “Not Active”.

Turning to `CCC[C@@H]1C[C@@H](C(=O)N[C@@H]([C@H]2O[C@H](SC)[C@H](O)[C@@H](O)[C@H]2O)[C@H](C)Cl)N(C)C1` [CLINDAMYCIN], the IC50 result in test [1], in test [2], in test [3], in test [4], in test [5] and in test [6] was “Not Active” in each case. Further, the IC50 result at Estrogen receptor beta was “Not Active”. For the same molecule, the Ki entry in test [6] is “Not Active”.

As to `O=C(O)c1cc(=O)c2c(OCC(O)COc3cccc4oc(C(=O)O)cc(=O)c34)cccc2o1` [CROMOLYN], the IC50 result in test [1], in test [2], in test [3], in test [4], in test [5] and in test [6] was “Not Active” in each case. On Estrogen receptor beta, the IC50 result is “Not Active”. The Ki result in test [6] is given as “Not Active”.

In the case of `O=P1(N(CCCl)CCCl)NCCCO1` (stereo unspecified) [CYCLOPHOSPHAMIDE ANHYDROUS], the IC50 entry in test [1], in test [2], in test [3], in test [4], in test [5] and in test [6] was “Not Active” in each case. Also, on Estrogen receptor beta, the IC50 entry was “Not Active”. Also, the Ki result in test [6] is “Not Active”.

As for `CC(=O)O[C@]1(C(C)=O)CC[C@H]2[C@@H]3C=C(Cl)C4=CC(=O)[C@@H]5C[C@@H]5[C@]4(C)[C@H]3CC[C@@]21C` [CYPROTERONE ACETATE], the IC50 entry in test [1], in test [2], in test [3], in test [4], in test [5] and in test [6] was “Not Active” in each case. Moreover, the IC50 result against Estrogen receptor beta is “Not Active”. Besides, in test [6], the Ki entry was “Not Active”.

On to `Nc1nc(N)nc(NC2CC2)n1` [CYROMAZINE], for which the IC50 result in test [1], in test [2], in test [3], in test [4], in test [5] and in test [6] was “Not Active” in each case. In addition, on Estrogen receptor beta, the IC50 result was “Not Active”. Further, the Ki result in test [6] is listed as “Not Active”.

Turning to `C[C@H](C(=O)O)c1cccc(C(=O)c2ccccc2)c1` [DEXKETOPROFEN], the IC50 entry in test [1], in test [2], in test [3], in test [4], in test [5] and in test [6] was “Not Active” each time. Further, the IC50 result against Estrogen receptor beta is “Not Active”. Also, the Ki entry in test [6] was “Not Active”.

For orientation: pIC50 means −log10 of the IC50, conventionally taken in molar units. What is called pKi is −log10 of the Ki, conventionally taken in molar units.
